Values joined by “and” are separate entries in the source; they are usually repeats but may differ in a detail not shown here. Equal entries are not always repeated. Where two headings read alike, the source gives them in different places.
Legend:
male Swiss-Webster mice [1] = assay: Locomotor activity, compound alone, 1-h session; type: in vivo, mouse
Experimental: (§1) 3. Locomotor Activity. […] Panels of infrared beams (16 beams) and corresponding photodetectors were located in the horizontal direction along the sides of each activity chamber. […] Just prior to placement in the apparatus, all mice received a saline injection IP. In all studies, horizontal activity (interruption of 1 photocell beam) was measured for 1-h within 10-min periods. Testing was conducted with one mouse per activity chamber. […] Plot the mean (±SEM) maximal stimulant activity (total counts in the 30 min period divided by 3) vs dose. Perform a log10 transformation of the 30 min period average counts for individual subjects to homogenize variances for subsequent analyses. […] Fit the 30 min period average counts across subjects to a function of log10 dose using least-squares curve-fitting analyses (i.e. TableCurve software from Jandel). Estimate the maximum effect from the resultant dose-response curve. […] Determine the ED50 (dose that produces ½ maximal stimulant activity) from a linear regression analysis of the ascending portion (up to the dose that produces a maximal effect) of the curve. […] Plot the mean (±SEM) activity (total counts in the 30 min period divided by 3) vs dose. Perform a log10 transformation of the 30 min period average counts for individual subjects to homogenize variances for subsequent analyses. Conduct an ANOVA and contrast (specified a priori) each dose of the test compound to the vehicle to determine significant (p<0.05) dose effects. Conduct a linear least-squares regression analysis; regress the min period average counts across subjects over the descending portion of the curve against the log10 dose of the test compound. […] Perform a log10 transformation of the 30 min period average counts for individual subjects to homogenize variances for subsequent analyses. […] Conduct a linear least-squares regression analysis; regress the 30 min period average counts across subjects over the descending portion of the curve against the log10 dose of the test compound. […] Locomotor Activity 8-hour time course/dose response study. […] A panel of infrared beams (16 beams) and corresponding photodetectors were located in the horizontal direction along the sides of each activity chamber. A 7.5-W incandescent light above each chamber provided dim illumination. Fans provided an 80-dB ambient noise level within the chamber. […] In all studies, horizontal activity (interruption of photocell beams) was measured for 8-h within 10-min periods, beginning at 0800 hrs (2 hours after lights on). Testing was conducted with one mouse per activity chamber. Compound alone study.

[2] = molecular target: T1, human dopamine transporter (hDAT) (Homo sapiens, UniProt Q01959); assay: biochemical; type: binding
T1 sequence (Q01959 whole entry): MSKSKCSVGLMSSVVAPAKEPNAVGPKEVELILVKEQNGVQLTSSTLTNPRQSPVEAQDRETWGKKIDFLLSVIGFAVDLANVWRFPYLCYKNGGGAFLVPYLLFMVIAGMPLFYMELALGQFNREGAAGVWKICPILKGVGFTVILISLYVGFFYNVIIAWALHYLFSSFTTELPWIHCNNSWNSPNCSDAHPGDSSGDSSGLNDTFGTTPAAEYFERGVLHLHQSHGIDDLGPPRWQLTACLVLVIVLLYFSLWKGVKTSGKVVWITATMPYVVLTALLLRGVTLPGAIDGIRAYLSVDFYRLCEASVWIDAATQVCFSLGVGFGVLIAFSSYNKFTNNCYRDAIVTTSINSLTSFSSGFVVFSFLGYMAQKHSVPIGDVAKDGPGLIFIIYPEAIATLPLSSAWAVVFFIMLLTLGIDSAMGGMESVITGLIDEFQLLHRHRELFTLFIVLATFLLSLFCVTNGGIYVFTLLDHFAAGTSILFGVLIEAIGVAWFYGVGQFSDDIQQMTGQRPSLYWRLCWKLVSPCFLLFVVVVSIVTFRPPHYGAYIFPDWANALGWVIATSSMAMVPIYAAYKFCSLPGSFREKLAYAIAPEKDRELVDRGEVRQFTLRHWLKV

D2 receptor [3] = molecular target: T2, D2 receptor (Homo sapiens, UniProt P14416); assay: D2 receptor binding, CHOp- cells, [3H]YM-09151-2
T2 construct: expressed in transfected cells; host or cells: CHOp- cells (CHOp-D2)
T2 sequence (P14416 whole entry): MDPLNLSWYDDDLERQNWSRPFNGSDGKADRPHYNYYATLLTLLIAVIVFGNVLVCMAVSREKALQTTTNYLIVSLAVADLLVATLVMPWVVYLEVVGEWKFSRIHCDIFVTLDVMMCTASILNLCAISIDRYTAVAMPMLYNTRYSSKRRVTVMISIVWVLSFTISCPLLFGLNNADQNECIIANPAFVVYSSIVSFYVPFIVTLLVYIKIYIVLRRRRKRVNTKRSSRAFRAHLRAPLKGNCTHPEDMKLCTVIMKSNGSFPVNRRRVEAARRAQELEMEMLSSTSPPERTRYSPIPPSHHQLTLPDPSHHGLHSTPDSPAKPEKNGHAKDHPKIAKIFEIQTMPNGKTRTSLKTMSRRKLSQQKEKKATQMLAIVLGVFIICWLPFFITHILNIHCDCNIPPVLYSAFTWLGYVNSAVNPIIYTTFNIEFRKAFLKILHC

D2 receptor [4] = molecular target: T2, D2 receptor; assay: cell-based; settings: for IC50: read-out: D2 Antagonist activity IC50
D1 receptor = molecular target: T3, D1 receptor (Homo sapiens, UniProt P21728); assay: D1 receptor binding, LHD1 cells, [3H]SCH 23,390
T3 construct: expressed in transfected cells; host or cells: LHD1 cells
T3 sequence (P21728 whole entry): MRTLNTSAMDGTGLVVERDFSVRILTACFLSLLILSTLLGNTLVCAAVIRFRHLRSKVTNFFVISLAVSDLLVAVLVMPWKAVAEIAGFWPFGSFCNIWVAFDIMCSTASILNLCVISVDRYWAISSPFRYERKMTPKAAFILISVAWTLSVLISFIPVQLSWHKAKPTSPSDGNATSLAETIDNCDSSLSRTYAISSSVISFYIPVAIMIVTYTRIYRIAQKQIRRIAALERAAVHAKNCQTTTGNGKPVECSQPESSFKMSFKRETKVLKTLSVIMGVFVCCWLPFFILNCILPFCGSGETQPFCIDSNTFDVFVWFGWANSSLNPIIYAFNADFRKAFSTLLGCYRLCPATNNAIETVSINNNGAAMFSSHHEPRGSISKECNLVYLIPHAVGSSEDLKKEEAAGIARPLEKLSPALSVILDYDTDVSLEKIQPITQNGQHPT

5-HT1A receptor = molecular target: T4, 5-HT1A receptor (Homo sapiens, UniProt P08908); assay: 5-HT1A receptor binding, HA7 cells, [3H]8-OH-DPAT; settings: for binding for 5-HT1A: Table 7
T4 construct: expressed in transfected cells; host or cells: HA7 cells
T4 sequence (P08908 1-422): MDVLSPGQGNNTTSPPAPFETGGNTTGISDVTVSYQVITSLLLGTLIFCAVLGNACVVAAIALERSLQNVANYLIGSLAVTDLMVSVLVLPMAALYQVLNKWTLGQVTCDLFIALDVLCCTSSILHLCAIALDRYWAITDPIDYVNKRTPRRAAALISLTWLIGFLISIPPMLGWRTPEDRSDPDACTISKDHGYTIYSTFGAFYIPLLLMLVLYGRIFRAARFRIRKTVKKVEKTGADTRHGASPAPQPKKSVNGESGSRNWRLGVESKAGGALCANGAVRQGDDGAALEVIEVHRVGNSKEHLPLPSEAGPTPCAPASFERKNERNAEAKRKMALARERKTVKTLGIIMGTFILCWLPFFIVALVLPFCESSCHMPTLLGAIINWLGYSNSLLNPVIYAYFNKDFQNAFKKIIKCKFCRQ

5-HT2C receptor = molecular target: T5, 5-HT2C receptor (Rattus norvegicus, UniProt P08909); assay: 5-HT2C receptor binding, NIH-3T3-P cells, [3H]mesulergine
T5 construct: expressed in transfected cells; host or cells: NIH-3T3-P cells
T5 sequence (P08909 33-460): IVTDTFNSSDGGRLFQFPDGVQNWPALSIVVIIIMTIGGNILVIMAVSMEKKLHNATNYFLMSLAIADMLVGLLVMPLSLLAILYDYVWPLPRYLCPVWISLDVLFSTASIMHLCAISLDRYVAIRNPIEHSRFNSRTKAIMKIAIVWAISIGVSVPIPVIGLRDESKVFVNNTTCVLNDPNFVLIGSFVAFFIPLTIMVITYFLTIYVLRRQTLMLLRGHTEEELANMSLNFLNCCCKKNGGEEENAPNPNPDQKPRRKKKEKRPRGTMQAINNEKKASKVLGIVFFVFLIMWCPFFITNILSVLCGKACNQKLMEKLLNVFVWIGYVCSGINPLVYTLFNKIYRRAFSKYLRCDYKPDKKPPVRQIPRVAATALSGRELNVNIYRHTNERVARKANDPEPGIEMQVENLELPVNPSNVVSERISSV

male Swiss-Webster mice [5] = assay: Cocaine/compound interaction study on locomotor activity; type: in vivo, mouse; settings: for Attenuation of cocaine-induced LMA: 20 mg/kg of cocaine; for AD50, dose attenuating cocaine-induced stimulation by 50%: Table 8, ligand-cocaine interaction study, 20 mg/kg cocaine IP
D3 receptor [6] = molecular target: T6, D3 receptor (Homo sapiens, UniProt P35462); assay: D3 receptor binding, CHOp- cells, [3H]YM-09151-2
T6 construct: expressed in transfected cells; host or cells: CHOp- cells (CHOp-D3)
T6 sequence (P35462 whole entry): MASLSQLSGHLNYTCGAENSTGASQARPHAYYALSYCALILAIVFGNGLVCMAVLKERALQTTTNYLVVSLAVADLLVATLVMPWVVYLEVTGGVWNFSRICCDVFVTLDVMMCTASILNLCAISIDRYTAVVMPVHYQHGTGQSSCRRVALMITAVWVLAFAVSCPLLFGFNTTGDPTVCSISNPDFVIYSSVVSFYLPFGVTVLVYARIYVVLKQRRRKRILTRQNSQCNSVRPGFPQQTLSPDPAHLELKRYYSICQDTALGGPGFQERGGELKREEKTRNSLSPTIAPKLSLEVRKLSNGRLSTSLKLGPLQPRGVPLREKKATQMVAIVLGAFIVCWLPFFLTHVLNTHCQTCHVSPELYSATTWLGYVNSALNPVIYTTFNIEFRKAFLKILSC

5-HT2A receptor = molecular target: T7, 5-HT2A receptor (Rattus norvegicus, UniProt P14842); assay: 5-HT2A receptor binding, NIH-3T3-GF6 cells, [3H]ketanserin
T7 construct: expressed in transfected cells; host or cells: NIH-3T3-GF6 cells
T7 sequence (P14842 whole entry): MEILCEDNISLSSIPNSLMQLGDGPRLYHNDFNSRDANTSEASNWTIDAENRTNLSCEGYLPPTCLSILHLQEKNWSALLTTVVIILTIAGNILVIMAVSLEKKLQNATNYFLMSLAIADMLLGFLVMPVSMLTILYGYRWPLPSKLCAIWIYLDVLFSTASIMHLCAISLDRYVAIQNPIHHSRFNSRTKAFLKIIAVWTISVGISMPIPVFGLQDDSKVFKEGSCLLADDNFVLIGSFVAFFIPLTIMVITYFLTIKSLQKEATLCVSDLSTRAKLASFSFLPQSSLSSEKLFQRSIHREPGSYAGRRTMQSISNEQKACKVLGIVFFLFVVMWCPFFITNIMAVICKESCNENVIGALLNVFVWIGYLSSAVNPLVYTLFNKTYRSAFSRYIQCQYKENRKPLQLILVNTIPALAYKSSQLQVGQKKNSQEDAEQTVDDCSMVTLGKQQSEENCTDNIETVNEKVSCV

[7] = molecular target: T1, human dopamine transporter (hDAT); assay: cell-based; settings: for IC50: Reuptake Inhibition [3H]DA IC50, Table 6; for Discrimination Ratios (DR) [3H]DA reuptake/DAT binding: Table 6
[8] = molecular target: T8, human norepinephrine transporter (hNET) (Homo sapiens, UniProt P23975); assay: cell-based; settings: Table 6; read-out: Reuptake Inhibition [3H]NE IC50
T8 sequence (P23975 whole entry): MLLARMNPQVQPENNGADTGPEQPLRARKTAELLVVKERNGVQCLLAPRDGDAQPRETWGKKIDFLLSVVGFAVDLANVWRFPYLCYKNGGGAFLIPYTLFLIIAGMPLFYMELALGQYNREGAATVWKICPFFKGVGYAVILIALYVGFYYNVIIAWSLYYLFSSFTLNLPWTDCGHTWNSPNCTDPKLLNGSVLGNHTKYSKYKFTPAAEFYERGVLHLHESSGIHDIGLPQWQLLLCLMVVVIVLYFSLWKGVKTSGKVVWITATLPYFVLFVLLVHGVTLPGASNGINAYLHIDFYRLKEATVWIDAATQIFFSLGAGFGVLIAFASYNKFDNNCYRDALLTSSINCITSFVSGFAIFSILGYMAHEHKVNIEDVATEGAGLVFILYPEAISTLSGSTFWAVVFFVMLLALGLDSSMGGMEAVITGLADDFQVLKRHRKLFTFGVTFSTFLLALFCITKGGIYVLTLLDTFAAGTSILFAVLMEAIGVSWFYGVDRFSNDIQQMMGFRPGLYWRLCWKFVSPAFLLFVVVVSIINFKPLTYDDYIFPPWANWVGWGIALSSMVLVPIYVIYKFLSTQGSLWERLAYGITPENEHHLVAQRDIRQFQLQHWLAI

[9] = molecular target: T9, human serotonin transporter (hSERT) (Homo sapiens, UniProt P31645); assay: cell-based; settings: Reuptake Inhibition [3H]5-HT IC50, Table 6
T9 sequence (P31645 whole entry): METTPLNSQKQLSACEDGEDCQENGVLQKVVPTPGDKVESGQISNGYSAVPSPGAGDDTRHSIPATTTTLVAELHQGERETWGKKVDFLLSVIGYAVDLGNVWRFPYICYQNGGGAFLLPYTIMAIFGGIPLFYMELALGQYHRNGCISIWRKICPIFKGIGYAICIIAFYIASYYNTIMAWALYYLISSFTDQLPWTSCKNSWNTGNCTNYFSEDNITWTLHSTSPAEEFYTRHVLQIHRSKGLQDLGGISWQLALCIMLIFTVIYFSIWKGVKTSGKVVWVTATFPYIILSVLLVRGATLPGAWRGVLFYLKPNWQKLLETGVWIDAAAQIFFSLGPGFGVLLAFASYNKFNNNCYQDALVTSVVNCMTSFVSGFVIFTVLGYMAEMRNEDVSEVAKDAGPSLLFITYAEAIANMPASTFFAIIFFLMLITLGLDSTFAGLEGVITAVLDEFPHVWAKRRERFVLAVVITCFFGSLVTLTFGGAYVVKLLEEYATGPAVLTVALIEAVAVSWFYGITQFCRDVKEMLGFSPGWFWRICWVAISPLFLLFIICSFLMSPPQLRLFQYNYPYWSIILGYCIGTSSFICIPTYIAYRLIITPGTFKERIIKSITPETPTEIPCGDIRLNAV

male Swiss-Webster mice [10] = assay: Locomotor activity 8-hour time course/dose response study; settings: for ED50: Mus musculus, ip, 8 h, read-out: ED50, dose producing 1/2 maximal stimulant activity (S, stimulation); for ME/CME, Maximal Effect/Cocaine Maximal Effect / mode of action / ID50, dose producing 1/2 maximal depressant activity (I, inhibition): Table 9, 8 hours; for mode of action: ligand alone study; for ID50, dose producing 1/2 maximal depressant activity (I, inhibition): mouse, IP
Experimental: as §1

D3 receptor [11] = molecular target: T6, D3 receptor; assay: Inhibition of quinpirole-stimulated mitogenesis ([3H]thymidine incorporation), CHOp-D3 cells; type: cell-based
[12] = molecular target: T9, human serotonin transporter (hSERT); assay: biochemical; settings: Table 5, read-out: SERT binding affinity Ki
[13] = molecular target: T8, human norepinephrine transporter (hNET); assay: biochemical; settings: Table 5; [125I]RTI-55; oxalate salts; read-out: NET binding affinity Ki
[14] = Table 7, CHOp- cells, [3H]YM-09151-2, read-out: D2 Affinity Ki
[15] = Table 7, LHD1 cells, [3H]SCH 23,390, read-out: D1 Affinity Ki
[16] = Table 7, rat receptors, [3H]mesulergine, read-out: 5-HT2C Affinity Ki
[17] = Table 7, CHOp- cells, [3H]YM-09151-2, read-out: D3 Affinity Ki
[18] = Table 7, rat receptors, NIH-3T3-GF6 cells, [3H]ketanserin, read-out: 5-HT2A Affinity Ki

Row | SMILES | Binding Ratios NET/DAT ([2]; Table 5) | Binding Ratios SERT/DAT ([2]; Table 5) | Ki (D2 receptor [3]; [14]) [nM] | IC50 (D2 receptor [4]) [nM] | Ki (D1 receptor; [15]) [nM] | Ki (5-HT1A receptor) [nM] | Attenuation of cocaine-induced LMA (male Swiss-Webster mice [5]) | Ki (D3 receptor [6]; [17]) [nM] | Ki (5-HT2A receptor; [18]) [nM] | IC50 [7] [nM] | Discrimination Ratios (DR) [3H]DA reuptake/DAT binding [7] | IC50 [8] [nM] | IC50 [9] [µM] | IC50 (D3 receptor [11]) [nM] | Ki ([12]; [125I]RTI-55, oxalate salts) [µM] | Ki (D2 receptor [3]) [nM] | Ki (D1 receptor) [nM] | Ki (5-HT2C receptor) [µM] | Ki (D3 receptor [6]) [nM] | Ki (5-HT2A receptor) [nM] | other results
1 | Fc1ccc(C(OCCCCN2CCNC(c3ccccc3)C2)c2ccc(F)cc2)cc1 (stereo not shown) [Compound 28, 2-Phenyl-4-[4-[bis(4-fluorophenyl)methoxy]butyl]piperazine] | 49.9 | 19.6 | 715 ± 404 | 164 | 6150 ± 541 | 2250 ± 359 | Attenuation | 677 ± 262 | 1490 ± 352 | 550 ± 140 | 144 and 144.4 | 290 ± 50 | 0.7 ± 0.26 | 629 | 0.0746 ± 0.0058 |  |  |  |  |  | ED50 (male Swiss-Webster mice [1]; Mus musculus, ip, 1 h, read-out: ED50, dose producing 1/2 maximal stimulant activity (S, stimulation)): 1.52 mg/kg; mode of action (male Swiss-Webster mice [1]; Table 8, ligand alone study): monophasic; ME/CME, Maximal Effect/Cocaine Maximal Effect (male Swiss-Webster mice [1]; Table 8, mouse locomotor activity): 0.30; effect on spontaneous LMA (male Swiss-Webster mice [1]; mouse, compound alone): significant increase; Ki ([2]; Table 5, [125I]RTI-55, oxalate salts, read-out: DAT binding affinity Ki): 3.81 ± 0.84 nM; Ki (5-HT2C receptor; [16]): 6.7 ± 0.437 µM; AD50, dose attenuating cocaine-induced stimulation by 50% (male Swiss-Webster mice [5]): 50.27 mg/kg; ED50 (male Swiss-Webster mice [10]): 7.6 mg/kg; ME/CME, Maximal Effect/Cocaine Maximal Effect (male Swiss-Webster mice [10]): 0.30; mode of action (male Swiss-Webster mice [10]): biphasic; ID50, dose producing 1/2 maximal depressant activity (I, inhibition) (male Swiss-Webster mice [10]): 36.4/I^e,f mg/kg
2 | Fc1ccc(C(OCCCCN2CCN(c3ccccc3)CC2)c2ccc(F)cc2)cc1 [Compound 29, 1-Phenyl-4-[4-[bis(4-fluorophenyl)methoxy]butyl]piperazine] | 3.3 | 0.8 | 447 ± 73.9 | 120 | 2430 ± 367 | 285 ± 76.4 |  | 242 ± 7.41 | 404 ± 52.6 |  | 23.2 |  |  | 44.6 |  |  |  |  |  |  | Ki (5-HT2C receptor; Table 7, bound given in μM, read-out: 5-HT2C Affinity Ki): > 10 µM
3 | Fc1ccc(C(OCCCCN2CCN(c3ccc(Cl)cc3)CC2)c2ccc(F)cc2)cc1 [Compound 34, 1-(4-Chlorophenyl)-4-[4-[bis(4-fluorophenyl)methoxy]butyl]piperazine] | 7.6 | 0.7 |  |  |  | > 10000 |  |  |  |  | 23.4 |  |  | 2.55 |  | > 10000 | > 10000 | > 10 | 340 ± 143 | 1150 ± 44.2 | antagonistic activity at D3 site (D3 receptor [11]; Table 7): selective and strong antagonistic activity
4 | COc1ccccc1N1CCN(CCCCOC(c2ccc(F)cc2)c2ccc(F)cc2)CC1 [Compound 35, 1-(2-Methoxyphenyl)-4-[4-[bis(4-fluorophenyl)methoxy]butyl]piperazine] | 3.5 | 9.7 |  | 84.4 |  | 34.9 ± 6.7 | Attenuation |  |  | 301 ± 16 | 11.5 | 176 ± 79 | 1.23 ± 0.024 | 56.7 | 0.255 ± 0.089 | 134 ± 21.7 | 777 ± 185 | 3 ± 0.0731 | 118 ± 31.9 | 698 ± 204 | Ki [13]: 92 ± 11 nM; Ki [2]: 26.2 ± 2.5 nM; binding for 5-HT1A (5-HT1A receptor): moderate binding
5 | Fc1ccc(C(OCCCCN2CCN(c3ccccn3)CC2)c2ccc(F)cc2)cc1 [Compound 39, 1-[4-[Bis(4-fluorophenyl)methoxy]butyl]-4-pyridin-2-ylpiperazine] | 12.3 | >1190 |  |  |  | 53.5 ± 8.62 | Attenuation |  |  | 386 ± 55 | 46 | 2230 ± 710 |  | 955 |  | 282 ± 67.7 | 597 ± 19.4 | 3.45 ± 1.08 | 453 ± 163 | 498 ± 47.9 | Ki [13]: 103 ± 37 nM; ED50, dose producing 1/2 maximal stimulant activity (S, stimulation) (male Swiss-Webster mice [1]; Table 8, mouse, IP, ligand alone, 1-h session): no activity; Ki [2]: 8.4 ± 4 nM; D2 functional activity, marked agonist (footnote d) (D2 receptor [4]; Table 7, CHOp-D2 cells, [3H]thymidine incorporation, agonist): 196 ± 62.8^d nM; binding for 5-HT1A (5-HT1A receptor): moderate binding; AD50, dose attenuating cocaine-induced stimulation by 50% (male Swiss-Webster mice [5]): 62.1 mg/kg; IC50 ([9]; bound given in μM): > 10 µM; ED50 (male Swiss-Webster mice [10]): 38 mg/kg; ME/CME, Maximal Effect/Cocaine Maximal Effect (male Swiss-Webster mice [10]): >0.35; mode of action (male Swiss-Webster mice [10]): biphasic; ID50, dose producing 1/2 maximal depressant activity (I, inhibition) (male Swiss-Webster mice [10]): 60.3/I^e,i mg/kg; Ki ([12]; bound given in μM): > 10 µM
6 | O=C(c1ccccc1)N1CCN(CCCCOC(c2ccc(F)cc2)c2ccc(F)cc2)CC1 [Compound 40, 1-Benzoyl-4-[1-[bis(4-fluorophenyl)methoxy]-4-butyl]piperazine] | 18.5 | 4.4 | 95.5 ± 19.7 | 183 | 6640 ± 313 | 1560 ± 271 |  | 119 ± 49.8 | 4800 ± 2090 | 640 ± 240 | 32.5 | 32 ± 10 | 2.17 ± 0.37 | 222 | 0.087 ± 0.043 |  |  |  |  |  | Ki [13]: 365 ± 69 nM; Ki [2]: 19.7 ± 2.5 nM; Ki (5-HT2C receptor; [16]): 4.64 ± 0.586 µM
